Assay results as given in patent US8202873B2, “2-[4-(pyrazol-4-ylalkyl)piperazin-1-yl]-3-phenyl pyrazines as 5-HT7 receptor antagonists” (Eli Lilly and Company, priority 2007, dated 2012).
Several values for one entry are separate records, joined by “and”; a condition that tells them apart may be missing. Equal entries are not always repeated.

Tests used:
[1] = molecular target: T1, 5-HT7 receptor (Homo sapiens, UniProt P34969); assay: 5-HT7 receptor affinity: radioligand binding assay ([3H]5-HT, SPA); settings: [3H]5-HT competition binding
T1 construct: expressed in transfected cells; host or cells: AV-12 cells
T1 sequence (P34969 whole entry): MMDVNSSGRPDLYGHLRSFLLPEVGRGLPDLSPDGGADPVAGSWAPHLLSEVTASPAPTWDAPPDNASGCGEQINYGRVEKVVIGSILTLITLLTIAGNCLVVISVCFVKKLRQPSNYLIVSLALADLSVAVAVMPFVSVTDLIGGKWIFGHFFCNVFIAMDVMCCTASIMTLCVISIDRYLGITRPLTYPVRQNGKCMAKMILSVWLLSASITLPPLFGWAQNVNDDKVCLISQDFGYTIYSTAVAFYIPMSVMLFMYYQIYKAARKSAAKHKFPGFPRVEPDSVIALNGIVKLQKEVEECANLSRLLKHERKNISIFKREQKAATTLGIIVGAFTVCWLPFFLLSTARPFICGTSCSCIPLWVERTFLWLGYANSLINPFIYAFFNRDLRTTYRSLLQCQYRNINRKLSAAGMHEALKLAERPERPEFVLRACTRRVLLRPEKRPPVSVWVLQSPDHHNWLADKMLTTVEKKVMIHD
Protocol: Membranes for affinity and antagonist activity assays are prepared essentially as follows. AV-12 cells, stably expressing the 5-HT7 receptor, are grown as a monolayer in 5×T-150 flasks in DMEM/F12 (3:1) 5% FBS, 20 mM HEPES, […], […]. After growing to 90% confluence the media is removed and replaced with Hybritech media containing 2% horse serum, […] dextran sulfate, 1 mg/mL nucellin, 1 mg/mL human transferrin (partially iron saturated), […], 20 mM HEPES, […] geneticin, 0.04% pluronic F68. The cells are grown overnight to condition the media. The next morning the conditioned media (˜150 mL total) is removed and set aside in a sterile container. The cells are trypsinized and collected in the conditioned media. Fresh suspension media is added to bring the total volume to 500 mL and a cell density of 5×10^5 cells/mL. […]
To prepare membranes, the above pellets are resuspended in ice-cold Tris buffer (20 mM Tris HCl, pH 7.4 at 23° C., 5 mM EDTA) and homogenized with a Wheaton tissue grinder. […] Protein concentrations are determined by the method of Bradford. […]
(§1) [^3H] […] The reactions are incubated at room temperature for 3 hr. and then counted in a Trilux Microbeta™ scintillation counter to detect receptor-bound radioligand. Binding data is analyzed by computer-assisted 4 parameter fit analysis (ID Business Solutions Ltd, Guildford, Surrey, UK). […]

[2] = molecular target: T2, 5-HT2B (Homo sapiens, UniProt P41595); assay: Radioligand receptor binding assay, 5-HT2B
T2 construct: expressed in transfected cells
T2 sequence (P41595 whole entry, species assumed): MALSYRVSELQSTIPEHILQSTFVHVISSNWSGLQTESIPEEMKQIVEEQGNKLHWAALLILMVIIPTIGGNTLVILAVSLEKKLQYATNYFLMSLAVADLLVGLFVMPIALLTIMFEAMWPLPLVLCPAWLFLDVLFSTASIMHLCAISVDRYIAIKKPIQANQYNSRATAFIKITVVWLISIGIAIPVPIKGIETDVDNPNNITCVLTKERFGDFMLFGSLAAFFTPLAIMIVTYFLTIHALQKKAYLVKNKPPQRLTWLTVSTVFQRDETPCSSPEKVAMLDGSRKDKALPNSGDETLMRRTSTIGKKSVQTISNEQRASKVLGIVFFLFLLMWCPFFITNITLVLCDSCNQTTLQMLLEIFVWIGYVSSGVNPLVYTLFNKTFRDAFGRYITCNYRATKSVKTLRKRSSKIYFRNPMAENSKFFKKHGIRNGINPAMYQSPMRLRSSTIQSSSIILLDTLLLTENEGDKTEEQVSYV
Protocol: as §1
(§2) Affinity for other serotonin receptor subtypes as well as for alpha 1 & 2 adrenergic receptors can readily be determined by modification of the above described radioligand receptor binding assay using membranes derived from cells stably expressing the desired receptor subtype including the 5-HT1A, 5-HT1B, and 5-HT1D subtypes, as well as the 5-HT2A, 5-HT2B, 5-HT2C, 5-HT4, 5-HT5, and 5-HT6 receptor subtypes. […] The binding affinities of compounds of the present invention may be determined at these additional receptor types and are found to generally have selectivity ratios ≧2.0 against other serotonergic receptors. […]

[3] = molecular target: T3, 5-HT5 (Homo sapiens, UniProt P47898); assay: Radioligand receptor binding assay, 5-HT5
T3 construct: expressed in transfected cells
T3 sequence (P47898 whole entry, species assumed): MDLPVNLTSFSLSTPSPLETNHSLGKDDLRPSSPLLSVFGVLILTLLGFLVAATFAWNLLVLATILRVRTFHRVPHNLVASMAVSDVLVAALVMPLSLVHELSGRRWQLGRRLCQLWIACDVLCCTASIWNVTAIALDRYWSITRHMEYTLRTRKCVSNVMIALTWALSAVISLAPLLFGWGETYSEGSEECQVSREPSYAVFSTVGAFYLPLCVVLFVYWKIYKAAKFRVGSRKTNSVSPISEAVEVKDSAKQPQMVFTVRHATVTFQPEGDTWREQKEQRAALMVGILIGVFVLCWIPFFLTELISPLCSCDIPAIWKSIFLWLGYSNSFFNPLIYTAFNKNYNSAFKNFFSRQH
Protocol: as §1, §2

[4] = molecular target: T4, 5-HT4 (Homo sapiens, UniProt Q13639); assay: Radioligand receptor binding assay, 5-HT4
T4 construct: expressed in transfected cells
T4 sequence (Q13639 whole entry, species assumed): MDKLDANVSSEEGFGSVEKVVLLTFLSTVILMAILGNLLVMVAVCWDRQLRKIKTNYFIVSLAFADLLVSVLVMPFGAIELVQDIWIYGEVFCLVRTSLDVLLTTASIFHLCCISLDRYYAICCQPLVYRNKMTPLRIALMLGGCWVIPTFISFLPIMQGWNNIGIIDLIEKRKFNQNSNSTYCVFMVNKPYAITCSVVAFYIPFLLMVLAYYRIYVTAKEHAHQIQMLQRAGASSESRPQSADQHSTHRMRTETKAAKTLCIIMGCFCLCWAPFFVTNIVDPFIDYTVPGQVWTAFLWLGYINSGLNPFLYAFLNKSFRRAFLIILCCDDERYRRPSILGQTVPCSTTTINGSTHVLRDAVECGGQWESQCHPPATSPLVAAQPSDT
Protocol: as §1, §2

[5] = molecular target: T5, alpha 1 adrenergic; assay: Radioligand receptor binding assay, alpha 1 adrenergic (first line); settings: alpha 1 adrenergic (first line, r12)
T5 construct: Ki; other: alpha 1 adrenergic (first line, r12)
Protocol: as §1, §2

[6] = molecular target: T6, 5-HT2C (Homo sapiens, UniProt P28335); assay: Radioligand receptor binding assay, 5-HT2C
T6 construct: expressed in transfected cells
T6 sequence (P28335 33-458): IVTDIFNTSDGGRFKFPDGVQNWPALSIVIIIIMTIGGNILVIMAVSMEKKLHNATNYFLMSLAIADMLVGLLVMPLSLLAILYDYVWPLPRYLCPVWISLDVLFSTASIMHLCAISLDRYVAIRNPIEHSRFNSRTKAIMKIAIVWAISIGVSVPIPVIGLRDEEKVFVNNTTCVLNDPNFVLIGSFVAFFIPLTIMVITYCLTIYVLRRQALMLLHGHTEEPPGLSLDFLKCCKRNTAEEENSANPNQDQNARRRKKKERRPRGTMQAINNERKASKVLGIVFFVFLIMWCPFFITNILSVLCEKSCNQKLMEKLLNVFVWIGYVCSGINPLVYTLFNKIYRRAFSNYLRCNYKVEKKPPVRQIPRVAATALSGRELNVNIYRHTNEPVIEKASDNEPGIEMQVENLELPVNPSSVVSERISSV
Protocol: as §1, §2

[7] = molecular target: T7, 5-HT1D (Homo sapiens, UniProt P28221); assay: Radioligand receptor binding assay, 5-HT1D
T7 construct: expressed in transfected cells
T7 sequence (P28221 whole entry, species assumed): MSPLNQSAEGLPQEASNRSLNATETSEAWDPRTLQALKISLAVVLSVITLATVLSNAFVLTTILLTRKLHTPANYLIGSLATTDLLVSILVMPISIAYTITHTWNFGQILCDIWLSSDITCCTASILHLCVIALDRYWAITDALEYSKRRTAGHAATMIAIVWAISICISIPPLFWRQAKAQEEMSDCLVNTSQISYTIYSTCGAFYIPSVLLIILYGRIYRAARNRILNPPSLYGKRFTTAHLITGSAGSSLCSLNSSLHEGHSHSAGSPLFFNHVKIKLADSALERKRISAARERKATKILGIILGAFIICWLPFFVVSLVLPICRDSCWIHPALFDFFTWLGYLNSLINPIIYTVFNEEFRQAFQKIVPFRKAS
Protocol: as §1, §2

[8] = molecular target: T8, 5-HT2A (Homo sapiens, UniProt P28223); assay: Radioligand receptor binding assay, 5-HT2A
T8 construct: expressed in transfected cells
T8 sequence (P28223 whole entry, species assumed): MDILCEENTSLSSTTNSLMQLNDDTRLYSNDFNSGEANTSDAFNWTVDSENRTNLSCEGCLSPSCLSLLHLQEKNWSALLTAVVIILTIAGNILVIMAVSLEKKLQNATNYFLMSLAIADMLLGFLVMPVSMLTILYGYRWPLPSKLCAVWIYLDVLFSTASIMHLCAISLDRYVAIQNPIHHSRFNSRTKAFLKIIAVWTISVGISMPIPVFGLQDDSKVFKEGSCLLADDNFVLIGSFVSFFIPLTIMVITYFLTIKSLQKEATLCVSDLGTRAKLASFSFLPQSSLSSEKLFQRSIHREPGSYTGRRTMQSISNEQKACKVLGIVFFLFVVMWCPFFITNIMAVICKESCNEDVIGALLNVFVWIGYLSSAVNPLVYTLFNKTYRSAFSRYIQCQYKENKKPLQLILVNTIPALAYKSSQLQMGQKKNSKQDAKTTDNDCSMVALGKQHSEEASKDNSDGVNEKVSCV
Protocol: as §1, §2

[9] = molecular target: T9, 5-HT1A (Homo sapiens, UniProt P08908); assay: Radioligand receptor binding assay, 5-HT1A
T9 construct: expressed in transfected cells
T9 sequence (P08908 1-422): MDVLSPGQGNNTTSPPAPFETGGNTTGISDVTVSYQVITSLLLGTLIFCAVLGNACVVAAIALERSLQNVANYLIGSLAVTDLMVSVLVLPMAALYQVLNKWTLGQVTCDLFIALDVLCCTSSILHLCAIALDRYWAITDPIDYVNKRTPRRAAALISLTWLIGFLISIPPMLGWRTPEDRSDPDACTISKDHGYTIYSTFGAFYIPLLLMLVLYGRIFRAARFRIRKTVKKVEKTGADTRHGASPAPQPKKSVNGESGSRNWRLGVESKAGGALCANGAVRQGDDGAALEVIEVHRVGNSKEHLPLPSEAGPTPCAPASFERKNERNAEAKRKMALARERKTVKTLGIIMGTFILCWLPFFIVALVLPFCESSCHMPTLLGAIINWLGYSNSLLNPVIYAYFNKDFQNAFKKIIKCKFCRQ
Protocol: as §1, §2

[10] = molecular target: T10, alpha 1 adrenergic; assay: Radioligand receptor binding assay, alpha 1 adrenergic (second line); settings: alpha 1 adrenergic (second line, r13)
T10 construct: Ki; other: alpha 1 adrenergic (second line, r13)
Protocol: as §1, §2

[11] = molecular target: T11, 5-HT1B (Homo sapiens, UniProt P28222); assay: Radioligand receptor binding assay, 5-HT1B
T11 construct: expressed in transfected cells
T11 sequence (P28222 whole entry, species assumed): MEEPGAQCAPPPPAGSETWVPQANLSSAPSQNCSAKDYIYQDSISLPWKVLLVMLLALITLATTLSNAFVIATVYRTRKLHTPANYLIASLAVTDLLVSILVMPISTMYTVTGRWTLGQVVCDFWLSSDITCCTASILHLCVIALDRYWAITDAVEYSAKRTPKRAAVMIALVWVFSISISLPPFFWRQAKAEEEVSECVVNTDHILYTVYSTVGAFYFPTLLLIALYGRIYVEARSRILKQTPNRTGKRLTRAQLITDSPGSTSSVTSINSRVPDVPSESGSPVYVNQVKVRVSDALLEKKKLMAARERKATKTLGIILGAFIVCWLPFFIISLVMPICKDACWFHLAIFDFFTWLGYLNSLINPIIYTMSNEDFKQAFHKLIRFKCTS
Protocol: as §1, §2

[12] = molecular target: T12, 5-HT6 (Homo sapiens, UniProt P50406); assay: Radioligand receptor binding assay, 5-HT6
T12 construct: expressed in transfected cells
T12 sequence (P50406 whole entry, species assumed): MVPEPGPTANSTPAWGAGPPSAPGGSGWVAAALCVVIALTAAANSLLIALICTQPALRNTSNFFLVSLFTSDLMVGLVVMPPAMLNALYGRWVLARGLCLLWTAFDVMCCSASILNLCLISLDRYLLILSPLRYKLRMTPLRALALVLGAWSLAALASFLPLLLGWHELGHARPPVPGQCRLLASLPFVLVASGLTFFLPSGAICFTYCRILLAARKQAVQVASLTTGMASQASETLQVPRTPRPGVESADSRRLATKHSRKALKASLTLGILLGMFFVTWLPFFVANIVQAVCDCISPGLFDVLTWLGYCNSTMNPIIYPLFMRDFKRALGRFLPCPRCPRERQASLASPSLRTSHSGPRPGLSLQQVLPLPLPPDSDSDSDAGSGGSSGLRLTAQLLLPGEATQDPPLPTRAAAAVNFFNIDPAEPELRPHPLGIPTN
Protocol: as §1, §2

Cn1cc(CN2CCN(c3nccnc3-c3cccc(F)c3F)CC2)cn1 [Example 142, 4-(1-Methyl-1H-pyrazol-4-ylmethyl)-3′-(2,3-difluorophenyl)-3,4,5,6-tetrahydro-2H-[1,2′]bipyrazine]
Ki [1]: ~44 nM and 44 nM
Ki [2]: > 3.16 µM
Ki [3]: > 7.02 µM
Ki [4]: > 6.31 µM
Ki [5]: > 1440 nM
Ki [6]: > 8.2 µM
Ki [7]: > 2400 nM
Ki [8]: > 7.47 µM
Ki [9]: 1250 nM
Ki [10]: 933 nM
Ki [11]: > 3.58 µM
Ki [12]: > 1790 nM
